Measured values reported in patent US20260034094A1, “COMPOSITIONS AND METHODS FOR INDUCING FERROPTOSIS” (Kojin Therapeutics, Inc., priority 2022, published 2026).
Read-outs that look alike come from different tables or passages of the source.

System: RKN cells
Experiment: RKN cell profiling assay (cell viability, CellTiter-Glo)
Type: cell-based
Settings: read-out: Cell Killing EC50
Method: RKN cells were suspended in assay medium (F-12 medium supplemented with 10% FBS and penicillin/streptomycin) and seeded at 1,000 cells per well (30 μL total volume) in opaque white 384-well plates (Corning). Cells were allowed to adhere for 24 h at 37° C. (95% humidity, 5% CO2) and then exposed to compounds disclosed herein for 72 h, or in the present case, 96 h. DMSO stock solutions of compounds were added to cells using a D300e Digital Dispenser (Tecan). The final DMSO concentration in each well was normalized to 0.5% (v/v) after compound treatment. Cell viability was measured using CellTiter-Glo (Promega). After incubation for 15 min at room temperature, luminescence was measured using a PHERAstar FSX microplate reader (BMG Labtech). Ferroptosis rescue experiments were performed as described previously using cells treated with ferrostatin-1 (fer-1, 1.5 μM) when seeding assay plates. Dose-response data were analyzed to determine EC50 values with GraphPad Prism 9 software using a four-parameter logistic equation or CDD Vault (Collaborative Drug Discovery) using the Levenberg-Marquardt algorithm.

Structure (SMILES)	EC50 (cell viability) [µM]	EC50 (96 h, 96 h exposure) [µM]
N=S(=O)(CCC(c1ccc(-c2ccc3cn[nH]c3c2)cc1)C(F)(F)F)CC[C@H](N)C(=O)O (some centres unmarked) [Compound 255]	≥ 1000	
N=S(=O)(CCC(c1ccc(-c2ccc(Cl)cc2Cl)cn1)C(F)(F)F)CC[C@H](N)C(=O)O (some centres unmarked) [Compound 317]	< 1000	
Cc1cccc(-c2cccc(C(CCS(=N)(=O)CC[C@H](N)C(=O)O)C(F)(F)F)c2)c1 (some centres unmarked) [Compound 286]	≥ 1000	
Cc1cc(Cl)ccc1-c1ccc(C(CCS(=N)(=O)CC[C@H](N)C(=O)O)C(F)(F)F)cc1 (some centres unmarked) [Compound 275]	< 1000	
Cc1ccc(-c2ccc(C(O)(CCS(=N)(=O)CC[C@H](N)C(=O)O)C(F)(F)F)cc2)c(F)c1 (some centres unmarked) [Compound 437]	< 1000	
N=S(=O)(CCC(c1ccc(-c2ccccc2C(F)(F)F)cc1)C(F)(F)F)CC[C@H](N)C(=O)O (some centres unmarked) [Compound 267]	< 1000	
COc1ccccc1-c1ccc(C(CCS(=N)(=O)CC[C@H](N)C(=O)O)C(F)(F)F)cc1 (some centres unmarked) [Compound 264]	< 1000	
Cn1ncc(-c2ccc(C(O)(CCS(=N)(=O)CC[C@H](N)C(=O)O)C(F)(F)F)cc2)cc1=O (some centres unmarked) [Compound 433]	≥ 1000	
N=S(=O)(CCC(c1ccc(-c2ccc(C(N)=O)nc2)cc1)C(F)(F)F)CC[C@H](N)C(=O)O (some centres unmarked) [Compound 245]	≥ 1000	
Cc1ccccc1-c1ccc(C(CCS(=N)(=O)CC[C@H](N)C(=O)O)C(F)(F)F)cc1 (some centres unmarked) [Compound 265]	< 1000	
CC(C)(C)CCS(=N)(=O)CC[C@H](N)C(=O)OC(C)(C)C (some centres unmarked) [Compound 96]		≥ 1000
N=S(=O)(CCC(c1ccc(S(=O)(=O)Cc2ccccc2)cc1)C(F)(F)F)CC[C@H](N)C(=O)O (some centres unmarked) [Compound 291]	≥ 1000	
N=S(=O)(CCC(c1ccc(-c2ccccc2O)cc1)C(F)(F)F)CC[C@H](N)C(=O)O (some centres unmarked) [Compound 235]	< 1000	
N=S(=O)(CCC(c1ccc(-c2cnc(N)nc2)cc1)C(F)(F)F)CC[C@H](N)C(=O)O (some centres unmarked) [Compound 251]	≥ 1000	
C=C(c1ccc(C(CCS(=N)(=O)CC[C@H](N)C(=O)O)C(F)(F)F)cc1)C(F)(F)F (some centres unmarked) [Compound 260]	≥ 1000	
Cc1ccc(-c2ccc(C(CCS(=N)(=O)CC[C@H](N)C(=O)O)C(F)(F)F)cc2)c(C)c1 (some centres unmarked) [Compound 280]	< 1000	
N=S(=O)(CCC(c1ccc(-c2ccc(Cl)cc2O)cc1)C(F)(F)F)CC[C@H](N)C(=O)O (some centres unmarked) [Compound 282]	< 1000	
N=S(=O)(CCC(c1ccc(-c2ccccc2F)cc1)C(F)(F)F)CC[C@H](N)C(=O)O (some centres unmarked) [Compound 217]	< 1000	
N[C@@H](CCS(=O)(=O)CCC(O)(c1ncc(-c2ccc(Cl)cc2Cl)cn1)C(F)(F)F)C(=O)O (some centres unmarked) [Compound 470]	≥ 1000	
N=S(=O)(CC[C@H](N)C(=O)O)CCC(O)(c1ncc(-c2ccc(Cl)cc2Cl)cn1)C(F)(F)F (some centres unmarked) [Compound 468]	< 1000	
N=S(=O)(CC[C@H](N)C(=O)O)CCC(O)(c1ccc(-c2ccc(Cl)cc2Cl)cn1)C(F)(F)F (some centres unmarked) [Compound 465]	≥ 1000	
N=S(=O)(CCC(c1ccc(-c2cccnc2)cc1)C(F)(F)F)CC[C@H](N)C(=O)O (some centres unmarked) [Compound 243]	≥ 1000	
N=S(=O)(CCC(c1ccc(-c2ccc(O)cc2Cl)cc1)C(F)(F)F)CC[C@H](N)C(=O)O (some centres unmarked) [Compound 270]	< 1000	

Structure (SMILES)	EC50 (cell viability) [µM]	EC50 (96 h, 96 h exposure) [µM]
N=S(=O)(CC[C@H](N)C(=O)O)CCC(O)(c1cnc(-c2ccc(Cl)cc2Cl)nc1)C(F)(F)F (some centres unmarked) [Compound 366]	< 1000	
CN1CCN(c2ccc(-c3ccc(C(CCS(=N)(=O)CC[C@H](N)C(=O)O)C(F)(F)F)cc3)cn2)CC1 (some centres unmarked) [Compound 249]	≥ 1000	
N=S(=O)(CCC(c1ccc(-c2ccc(Cl)cc2)cc1)C(F)(F)F)CC[C@H](N)C(=O)O (some centres unmarked) [Compound 277]	< 1000	
N=S(=O)(CC[C@H](N)C(=O)O)CCC(O)(c1ccc(C2CCCCC2)cn1)C(F)(F)F (some centres unmarked) [Compound 476]	< 1000	
N=S(=O)(CCC(c1ccc(-c2ccsc2)cc1)C(F)(F)F)CC[C@H](N)C(=O)O (some centres unmarked) [Compound 257]	< 1000	
COc1ccc(-c2ccc(C(CCS(=N)(=O)CC[C@H](N)C(=O)O)C(F)(F)F)cc2)c(Cl)c1 (some centres unmarked) [Compound 268]	< 1000	
N=S(=O)(CCC(c1ccc(-c2cnc3[nH]ccc3c2)cc1)C(F)(F)F)CC[C@H](N)C(=O)O (some centres unmarked) [Compound 253]	< 1000	
Cc1ccccc1-c1ccc(C(O)(CCS(=N)(=O)CC[C@H](N)C(=O)O)C(F)(F)F)cc1 (some centres unmarked) [Compound 429]	< 1000	
N=S(=O)(CCC(c1ccc(C2=CCNCC2)cc1)C(F)(F)F)CC[C@H](N)C(=O)O (some centres unmarked) [Compound 259]	≥ 1000	
N=S(=O)(CCC(c1ccc(C2CC2)cc1)C(F)(F)F)CC[C@H](N)C(=O)O (some centres unmarked) [Compound 225]	< 1000	
Cc1cc(Cl)ccc1-c1cccc(C(CCS(=N)(=O)CC[C@H](N)C(=O)O)C(F)(F)F)c1 (some centres unmarked) [Compound 283]	≥ 1000	
N=S(=O)(CCC(c1ccc(-c2ccccc2Cl)cc1)C(F)(F)F)CC[C@H](N)C(=O)O (some centres unmarked) [Compound 220]	< 1000	
N=S(=O)(CC[C@H](N)C(=O)O)CCC(O)(c1cnc(-c2ccc(Cl)cc2Cl)cn1)C(F)(F)F (some centres unmarked) [Compound 367]	< 1000	
N=S(=O)(CCC(c1ccc(-c2cccc(C(N)=O)c2)cc1)C(F)(F)F)CC[C@H](N)C(=O)O (some centres unmarked) [Compound 229]	≥ 1000	
CC(C)(C)CCS(=N)(=O)CC[C@H](N)C(=O)Nc1nccs1 (some centres unmarked) [Compound 121]		≥ 1000
N=S(=O)(CCC(c1cccc2ccccc12)C(F)(F)F)CC[C@H](N)C(=O)O (some centres unmarked) [Compound 311]	< 1000	
Cc1ccc(-c2ccc(C(CCS(=N)(=O)CC[C@H](N)C(=O)O)C(F)(F)F)cc2)cn1 (some centres unmarked) [Compound 246]	≥ 1000	
N=S(=O)(CC[C@H](N)C(=O)O)CCC(O)(c1ncc(-c2ccccc2)cn1)C(F)(F)F (some centres unmarked) [Compound 467]	< 1000	
CC(C)(O)c1cccc(-c2ccc(C(CCS(=N)(=O)CC[C@H](N)C(=O)O)C(F)(F)F)cc2)c1 (some centres unmarked) [Compound 241]	≥ 1000	
N=S(=O)(CC[C@H](N)C(=O)O)CCC(O)([C@H]1CC[C@@H](c2ccc(Cl)cc2Cl)CC1)C(F)(F)F (some centres unmarked) [Compound 341]	< 1000	
N=S(=O)(CCC(c1cccc(-c2ccc(Cl)cc2Cl)c1)C(F)(F)F)CC[C@H](N)C(=O)O (some centres unmarked) [Compound 288]	≥ 1000	
Cc1nc(Cl)ccc1-c1ccc(C(CCS(=N)(=O)CC[C@H](N)C(=O)O)C(F)(F)F)cc1 (some centres unmarked) [Compound 248]	< 1000	
N=S(=O)(CC[C@H](N)C(=O)O)CCC(O)(c1ccc(-c2ccco2)cn1)C(F)(F)F (some centres unmarked) [Compound 481]	< 1000	

Structure (SMILES)	EC50 (cell viability) [µM]	EC50 (96 h, 96 h exposure) [µM]
CC(C)(O)c1ccc(C(CCS(=N)(=O)CC[C@H](N)C(=O)O)C(F)(F)F)cc1 (some centres unmarked) [Compound 263]	≥ 1000	
N=S(=O)(CC[C@H](N)C(=O)O)CCC(O)([C@H]1CC[C@H](c2ccc(Cl)cc2Cl)CC1)C(F)(F)F (some centres unmarked) [Compound 340]	< 1000	
N=S(=O)(CCC(c1ccc(-c2cn[nH]c2)cc1)C(F)(F)F)CC[C@H](N)C(=O)O (some centres unmarked) [Compound 227]	≥ 1000	
Cc1cc(C(O)(CCS(=N)(=O)CC[C@H](N)C(=O)O)C(F)(F)F)ccc1-c1ccc(Cl)cc1Cl (some centres unmarked) [Compound 443]	< 1000	
N=S(=O)(CC[C@H](N)C(=O)O)CCC(O)(c1cc(-c2ccc(Cl)cc2Cl)cs1)C(F)(F)F (some centres unmarked) [Compound 337]	< 1000	
N=S(=O)(CC[C@H](N)C(=O)O)CCC(O)(c1ccc(Oc2ccc(Cl)cc2Cl)cc1)C(F)(F)F (some centres unmarked) [Compound 342]	< 1000	
N=S(=O)(CCC(c1ccc(-c2ccc(F)cc2Cl)cc1)C(F)(F)F)CC[C@H](N)C(=O)O (some centres unmarked) [Compound 271]	< 1000	
N=S(=O)(CC[C@H](N)C(=O)O)CCC(O)(c1ccc(OC2CCCCC2)cc1)C(F)(F)F (some centres unmarked) [Compound 339]	< 1000	
CC(C)c1ccccc1-c1ccc(C(CCS(=N)(=O)CC[C@H](N)C(=O)O)C(F)(F)F)cc1 (some centres unmarked) [Compound 266]	< 1000	
N=S(=O)(CCC(c1ccccc1O)C(F)(F)F)CC[C@H](N)C(=O)O (some centres unmarked) [Compound 397]	< 1000	
N=[S@](=O)(CC[C@H](N)C(=O)O)CCC(O)(c1ccccc1)C(F)(F)F (single isomer, unassigned) [Compound 346]	≥ 1000	
N=S(=O)(CC[C@H](N)C(=O)O)CCC(O)(c1ccn(-c2ccc(Cl)cc2Cl)n1)C(F)(F)F (some centres unmarked) [Compound 336]	≥ 1000	
N=S(=O)(CC[C@H](N)C(=O)O)CCC1(c2ccc(Oc3ccc(Cl)cc3Cl)cc2)CCC1 (some centres unmarked) [Compound 403]	≥ 1000	
CCCCS(=N)(=O)CC[C@H](N)c1nnn[nH]1 (stereo partly drawn) [Compound 200, (1S)-3-(butylsulfonimidoyl)-1-(1H-tetrazol-5-yl)propan-1-amine]		≥ 1000
CCCCS(=N)(=O)CC[C@H](N)C(=O)NC (some centres unmarked) [Compound 107]		≥ 1000
N=S(=O)(CCC(c1cccc(-c2cccc(F)c2)c1)C(F)(F)F)CC[C@H](N)C(=O)O (some centres unmarked) [Compound 287]	≥ 1000	
N=S(=O)(CCC(c1ccc(-c2ccccc2Cl)cc1)C(F)(F)F)CC[C@H](N)C(=O)O (single isomer, unassigned) [Compound 219]	≥ 1000	
N=S(=O)(CCC(c1ccc(-c2ccoc2)cc1)C(F)(F)F)CC[C@H](N)C(=O)O (some centres unmarked) [Compound 258]	< 1000	
N=S(=O)(CCC(c1ccc(-c2ccc(C(F)F)cc2)cc1)C(F)(F)F)CC[C@H](N)C(=O)O (some centres unmarked) [Compound 231]	< 1000	
Cc1ccc(-c2ccc(C(CCS(=N)(=O)CC[C@H](N)C(=O)O)C(F)(F)F)cc2)c(Cl)c1 (some centres unmarked) [Compound 276]	< 1000	
Cc1ccccc1-c1ccc(C(O)(CCS(=N)(=O)CC[C@H](N)C(=O)O)C(F)(F)F)nc1 (some centres unmarked) [Compound 471]	< 1000	
N=S(=O)(CCC(c1ccc(Oc2ccccc2)cc1)C(F)(F)F)CC[C@H](N)C(=O)O (some centres unmarked) [Compound 316]	< 1000	
